These results are taken from article PMC4683533, “Discovery of novel INK4C small-molecule inhibitors to promote human and murine hematopoietic stem cell ex vivo expansion” (Scientific Reports, 2015).

Assay [1] has as its system human cord blood CD34+ cells (CD34+CD49f+ cells). Description: human cord blood CD34+ cell ex vivo culture and screen. Type of assay: cell-based. As to conditions: dose response, Fig. 4B. As for the experimental part:
Based on our study of murine HSCs, we further tested whether these p18SMIs could expand human cord blood CD34^+ cells in ex vivo culture. […] We cultured human cord blood CD34^+ cells for 7 days in HSCs expansion media in the presence of 200 nM of p18SMIs, and then analyzed the percentage and absolute number of CD34^+CD49f^+ cells by flow cytometry. We screened 40 p18SMIs, of which14 compounds could increase the number of CD34^+CD49f^+ cells compared with the control group (Fig. S6). […] Then we conducted a concentration gradient assay on top three p18SMIs with ED50 less than 10 nM (compounds 22, 40 and 41). […] Only in specific doses could they show their expansion effect on human HSCs (Fig. 4B).
Human cord blood samples were collected from consenting donors according to ethically approved procedures at Tianjin Central Hospital of Gynecology Obstetrics (Tianjin, China), under a protocol approved by the Ethical Committee on Medical Research at the Institute of Hematology. Human CD34^+ cord blood cells were isolated using human CD34 MicroBead Kit (MiltenyiBiotec) according to the manufacturer’s protocol after settling red cells with HES and red cells lysis with ACK Lysis Buffer.
Human CD34^+ cells were cultured in expansion medium consisting of StemSpan SFEM (StemCell Technologies) supplemented with 100 ng/mL human stem cell factor (SCF, PeproTech), 50 ng/mL human thrombopoietin (TPO, PeproTech), 100 ng/mL human FMS-like trysine kinase 3 ligand (Flt3L, PeproTech). Human CD34^+ cells were resuspended in expansion medium (5 × 10^4 cells/mL) before being aliquoted in 96-well plates (Costar, Corning Incorporated). Compounds, all with a final concentration of 200 nM, were dissolved in DMSO and added immediately in cell suspension after plating. The final concentration of DMSO in the control group was the same as in the compounds-treated group. Cells were cultured at 37 °C in 5% CO2. Based on the results of primary screening upon human cells and the results of ED50, we chose three compounds for further experiments. The expansion medium was changed to StemSpan SFEM (StemCell Technologies) supplemented with 100 ng/mL human stem cell factor (SCF, PeproTech), 100 ng/mL human thrombopoietin (TPO, PeproTech), 100 ng/mL human FMS-like trysine kinase 3 ligand (Flt3L, PeproTech) and 100 ng/mL human interleukin-6 (IL-6, PeproTech) for better expansion effect. The incubation condition was consistent with before.
Phenotypes analysis of cultured cells was performed on a BD FACS Array (Becton Dickinson Biosciences) using a combination of the following antibodies: APC anti-CD34 (BD Biosciences), PE anti-CD49f (BD Biosciences). Stained cells were washed once with PBS and then measured and analyzed on an FACS analyzer (FACSArray, BD Biosciences).

Another assay concerns HSCs (CD34−LKS cells). Description: single hematopoietic stem cell in vitro culture (nmEM colony) assay. Type of assay: cell-based, mouse. The settings on record: single CD34−LKS cell culture, 14 days, ratio of nmEM wells to DMSO control. As for the experimental part: We biologically assessed the 22 putative p18SMI compounds for their ability to maintain HSCs stem cell characteristics, to be specific self-renewal and multi-lineage differentiation, using single cell cultures. […] Thus, we employed single HSC culture to assess p18SMI compounds’ effect upon HSCs. CD34^−LKS cells from C57BL/6 mice were individually deposited into a 96-well plate (one cell/well). The single cell was cultured for 14 days in 100 μL of serum-free medium (Gibco) containing 100 ng/mL of mouse stem cell factor (SCF), 10 ng/mL of mouse interleukin-3 (IL-3), 25 ng/mL of human thrombopoietin (TPO), 2 U/mL of human erythropoietin (EPO) and differing concentrations of the p18SMI compound. Cells were cultured 14 days for in vitro colony formation and colonies were then cytospined and analyzed by flow cytometry to test the subpopulation of cultured cells. Neutrophils (n), macrophages (m), erythroblasts (E) or megakaryocytes (M) were identified by the cell marker of Gr-1, Mac-1, Ter-119 and CD41 using flow cytometry. The wells from each group that generated all lineages (nmEM) were counted and the ratio to the control group (DMSO) was calculated.
Single CD34^-LKS cells from C57BL/6 mice were individually deposited into each well of a 96-well plate along with 100 μL of serum free medium (Gibco) containing 100 ng/mL of mouse SCF, 10 ng/mL of mouse IL-3, 25 ng/mL of human TPO, 2 U/mL of human EPO and p18SMI compounds (different dilutions). Cells were cultured in a 37 °C, 5% CO2 incubator for 14 days for ex vivo colony formation. Colonies were then cytospined and analyzed using flow cytometry. Neutrophils (n), macrophages (m), erythroblasts (E) or megakaryocytes (M) were identified based on their cell surface maker, Gr-1, Mac-1, Ter119 and CD41. Cells were measured on an FACS analyzer (FACSArray, BD Biosciences). […] The wells from each group that generated all lineages (nmEM) were counted. The ratio of p18SMI compound treatment group to the control group (DMSO-treated) was calculated and fitted to a curve to calculate the ED50 value using GraphPad Prism v6.0.

A further assay concerns LT-HSCs. Also noted: method as in PMID 25692908. The settings on record: CDK inhibitor alone; cited from earlier work.
Assay [2] concerns LT-repopulating HSCs (CD34-LKS cells). Description: competitive bone marrow transplantation (cBMT) assay. It counts as in vivo, mouse. The method, then:
Figure 3 Treatment of c-Kit-enriched murine BM cells with p18SMI compounds enhances HSC expansion. (A) The average number of total cells, HSPCs (Lin^−Sca1^+) and long term (LT)-HSCs (Lin^-Sca1^+CD48^−CD150^+) were analyzed by flow cytometry. (B) Single CD34^−LKS cell were deposited into each well of a 96-well plate, along with differentiation medium plus different concentrations of p18SMI compounds to show the dose-response effect of p18SMI compounds. (C) CAFC-LDA assay of cells treated with XIE18-6, compound 40 and DMSO to reveal the frequency of primitive HSCs. Above data (A–C) is mean ± SEM for all experiments of two or more and were performed in duplicate or triplicate. (D) Experimental design for transplantation (n = 10). CD34^-LKS cells were sorted into 96-well plates at 50 cells/well and cultured for 3 days with cytokine plus 20 μM of compounds or DMSO. Cells from each well were mixed with 2 × 10^6 freshly isolated bone marrow MNCs and co-transplanted by tail-vein injection into lethally irradiated CD45.2 recipient mice. 16 weeks after transplantation, bone marrow MNCs were stained to determine the engraftment level of donor cells. Bone marrow MNCs were also stained for lineage analysis. Multi-lineage differentiation was examined by flow cytometry. GM, T and B indicate lineages for myeloid, T and B cells, respectively. (E,F) The engraftment levels at 16 weeks after primary transplantation, and multi-lineage differentiation profile. Data is mean ± SEM for all experiments (***p < 0.001, **p < 0.01). TEXT PRINTED IN THE PICTURE: (E) #40: Engrafment%: *** 5.93X | (E) XIE18-6: Engrafment%: ** 3.01X DOUBTS OF THE COPYIST ABOUT THIS PICTURE: Panel E: 5.93X and 3.01X are printed on brackets running from #40 and from XIE18-6 to DMSO. No measure is printed beside them, so the axis label 'Engrafment%' was used as the measure.
The increased frequency and total number of functional LT-HSCs after treatment with p18SMI compounds was further confirmed by competitive bone marrow transplantation (cBMT) assay (Fig. 3D). CD34^-LKS cells were first sorted and cultured w/o p18SMI compound for 3 days. Then the cultured cells were gathered and co-transplanted into lethally irradiated mice with competitor cells. […] Moreover, the engraftment of the group treated with compound 40 was double of that of the group treated with XIE18–6.

A further assay relates to HSCs (bone marrow MNCs). Description: cobblestone area forming cells (CAFC) assay with limiting dilution assay (LDA). Type of assay: cell-based, mouse. The settings on record: day 35. The method, then:
We also investigated whether the increased number of phenotypic SLAM^+LT-HSCs in short-term culture assays was correlated with an increase in functional LT-HSCs. Cobblestone area forming cells (CAFC) assay combined with limiting-dilution assays (LDA) were performed to measure the frequency of HSCs[19][22][30]. Compared with the control group (HSC frequency is 1 in 112,559 of the original plated cells), the frequency of HSC at day 35 (indicating the activity of hematopoietic reconstitution capacity) was 2.7-fold and 3.0-fold higher in the cultures treated with XIE18–6 (HSC frequency is 1 in 42,490 of the original plated cells) and compound 40 (HSC frequency is 1 in 37,524 of the original plated cells) (p < 0.001, Fig. 3C), respectively.
Freshly isolated bone marrow MNCs from mice, 6–8 weeks old, were plated in a 24-well plate with 1 mL Dexter’s medium at a density of 2 × 10^6 cells per mL in the absence or presence of different doses of the tested compounds. The culture was maintained at 33 °C with 5% CO2. The number of cobblestone areas (CAs) was counted weekly. The medium was also replaced with half fresh medium on a weekly basis. For the limiting dilution analysis (LDA) of the test cells, different limiting doses were plated on the irradiated stromal cells in 96-well plates containing 200 μL of M5300 medium (StemCell Technologies) supplemented with 10^−6 M hydrocortisone. Each group was done with 20 replicates well. Small-molecule compounds were added to the co-culture system at different doses. Half of the medium in each well was replaced with fresh medium containing the test compounds weekly. The existence of CA in each well was evaluated under an inverted microscope at weekly intervals for 5 weeks. Based on the Poisson distribution of the negative wells, the frequency of long-term initiating cells was calculated with L-Calc software (StemCell Technologies).

As to `COC(=O)[C@H](NS(=O)(=O)c1ccc(NC(C)=O)cc1)c1ccccc1` [Compound 22], in assay [1], the “expansion of human HSCs in concentration gradient assay” value was “concentration related”.
For `O=C(O)c1ccc(S(=O)(=O)NC2CCCCC2)cc1` [Compound 39, 4-(N-cyclohexylsulfamoyl)benzoic acid], the “ED50 (activity to promote the expansion of HSCs)” value in the assay with HSCs (CD34−LKS cells) amounted to 120 nM.
Regarding `CC(=O)Nc1ccc(C(=O)Oc2ccc3c(C(C)C)cc(=O)oc3c2)cc1` [Compound 41, 4-Isopropyl-2-oxo-2H-chromen-7-yl 4-acetamidobenzoate], the “expansion of human HSCs in concentration gradient assay” value in assay [1] was “concentration related”.
As for `CC(=O)c1c(C)c2cnc(Nc3ccc(N4CCNCC4)cn3)nc2n(C2CCCC2)c1=O` [PD0332991], in the assay with LT-HSCs, the “maintenance of HSCs population” value was “could not maintain HSCs population”.
As to `CC(C)(C)c1cnc(CSc2cnc(NC(=O)C3CCNCC3)s2)o1` [SNS032], the “maintenance of HSCs population” value in the assay with LT-HSCs is listed as “could not maintain HSCs population”.
Turning to `CC(=O)Nc1ccc(S(=O)(=O)Oc2ccc3c(C)cc(=O)oc3c2)cc1` [XIE18-6], the “multi-lineage differentiation profile (GM, T, B) compared with the control group” value in assay [2] (16 weeks after transplantation) is given as “did not cause predominant growth of any specific lineages”. For the same compound, in assay [2] (CD34-LKS cells cultured 3 days with 20 μM compound, co-transplanted with competitor cells into lethally irradiated mice, bone marrow 16 weeks after transplantation), the “increase in engraftment compared with the DMSO control group” value was 3.01 fold. Moreover, in assay [2] (cells cultured 3 days with 20 μM compound, 16 weeks after transplantation), the “increase in engraftment compared with the uncultured group” value was found to be 2.20 fold. The “ED50 (activity to promote the expansion of HSCs)” value in the assay on HSCs (CD34−LKS cells) was 105.5 nM. Also, in the assay on HSCs (bone marrow MNCs), the “HSC frequency (1 in x of the original plated cells)” value was 42,490 and the “frequency of HSC, fold higher than control group” value came out at 2.7 fold.
